Results on 32 compounds are retold here after patent US4638088A, “Pesticidal biphenylyloxy and biphenylylalkoxy aryl acyl urea compounds” (Union Carbide Corporation, priority 1984, dated 1987).

The subject of data set [1] is southern armyworm. The data set is described as follows: Southern Armyworm Leaf Spray Bait Test. Format: in vivo. The following applies: Spodoptera eridania, 120 h; for mortality at 500 ppm: read-out: Activity at 500 ppm, SAW, 500 ppm, Southern Armyworm larvae, up to five days; for mortality at 2 ppm: read-out: Percent Control (after 5 days), Application Rate 2 ppm; for mortality at 8 ppm: read-out: Percent Control (after 5 days), Application Rate 8 ppm; for mortality at 25 ppm: read-out: Percent Control (after 5 days), Application Rate 25 ppm; for mortality at 100 ppm: read-out: Percent Control (after 5 days), Application Rate 100 ppm; for mortality at 4 ppm: read-out: Percent Control (after 5 days), Application Rate 4 ppm; for mortality at 125 ppm: read-out: Percent Control (after 5 days), Application Rate 125 ppm. As for the experimental part: (§1) Suspension of the test compounds were prepared by dissolving one gram of compound in 50 milliliters of acetone in which had been dissolved 0.1 gram (10 percent of the weight of compound) of an alkylphenoxy polyethoxyethanol surfactant, as an emulsifying or dispersing agent. The resulting solution was mixed into 150 milliliters of water to give roughly 200 milliliters of a suspension containing the compound in finely divided form. The thus-prepared stock suspension contained 0.5 percent by weight of compound. The test concentrations in parts per million by weight employed in the tests described hereinbelow were obtained by appropriate dilutions of the stock suspension with water. Certain of the test compounds were also prepared by dissolving 375 mg of compound in 7.5 ml of dimethylformamide. Fifteen milliliters of acetone containing 37.5 mg (10 percent of the weight of test compound) of an alkylphenoxy polyethoxyethanol surfactant, as a wetting/emulsifying/dispersing agent was added to the dimethylformamide solution. Fifty-two and one-half milliliters of water wasa mixed into the dimethylformamide-acetone mixture to give roughly 75 ml of a suspension containing the compound in solution or in finely divided form. The thus prepared stock suspension contained 0.5 percent by weight of compound. The test procedures were as follows:
Larvae of the southern armyworm (Spodoptera eridania, (Cram.), reared on Tendergreen bean plants at a temperature of 80°±5° F. and a relative humidity of 50±5 percent, constituted the test insects.
Potted Tendergreen bean plants of standarad height and age were placed on a revolving turntable and sprayed with 100-110 milliliters of test compound formulation by use of a DeVilbiss spray gun set at 40 psig air pressure. This application, which lasted 25 seconds, was sufficient to wet plants to run-off. As a control, 100-110 milliliters of a water-acetone-emulsifier solution containing no test compound was also sprayed on infested plants. When dry, the paired leaves were separated and each one was placed in a 9 centimeter Petri dish lined with moistened filter paper. Five randomly selected larvae were introduced into each dish and the dishes were closed. The closed dishes were labeled and held at 80°-85° F. for up to five days. Although the larvae could easily consume the whole leaf within twenty-four hours, no more food was added. Larvae which were unable to move the length of the body, even upon stimulation by prodding, were considered dead. Percent mortality was recorded for various concentration levels.

In data set [2] the test system is Mexican bean beetle. The data set is described as follows: Mexican Bean Beetle Leaf Spray Test. Format: in vivo, Epilachna varivestic. The following applies: Mexican Bean Beetle larvae, five days; for mortality at 500 ppm: Epilachna varivestis, 120 h, read-out: Activity at 500 ppm, MBB; for Activity at 500 ppm, MBB: 7200 min. As for the experimental part:
as §1
Fourth instar larvae of the Mexican bean beetle (Epilachna varivestic, Muls.), reared on Tendergreen bean plants at a temperature of 80°±5° F. and 50±5 percent relative humidity, were the test insects. For certain of the tests second instar larvae (weighting about 6 mg) of the Mexican bean beetle (Epilachna varaivestis, Muls.), reared on Sieva Pole lime bean plants at a temperature of 80°±5° F. and 50±5 percent relative humidity, were the test insects.
The test compounds were formulated by diluting the stock suspension with water to give a suspension containing 500 parts of test compound per million parts of final formulation. Potted Tendergreen bean plants of standard height and age were placed on a revolving turntable and sprayed with 100-110 milliliters of test compound formulation by use of a DeVilbiss spray gun set at 40 psig air pressure. This application, which lasted 25 seconds, was sufficient to wet plants to run-off. As a control, 100-110 milliliters of a water-acetone-emulsifier solution containing no test compound was also sprayed on infested plants. When dry, the paired leaves were separated and each was placed in a 9 centimeter Petri dish lined with moistened filter paper. Five randomly selected larvae were introduced into each dish, and the dishes were closed. The closed dishes were labeled and held at a temperature of 80°±5° F., for five days. Although the larvae could easily consume the leaf within 24 to 48 hours, no more food was added. Larvae which were unable to move the length of the body, even upon stimulation, were considered dead. Percent mortality was recorded for various concentration levels.

Regarding `Cc1cc(Oc2ccccc2-c2ccccc2)c(Cl)cc1NC(=O)NC(=O)c1c(F)cccc1F` [Example 22], the mortality at 500 ppm in data set [1] and in data set [2] was 71 to 100% each time.

For the compound `Cc1cc(NC(=O)NC(=O)c2ccccc2Cl)c(C)c(Cl)c1Oc1ccc(Br)cc1-c1ccccc1` [Example 24], the values for the mortality at 500 ppm in data set [1] and in data set [2] were 71 to 100% and 0 to 30%, respectively.

Consider `Cc1ccccc1C(=O)NC(=S)Nc1cc(C)c(Oc2ccccc2-c2ccccc2)c(Cl)c1C` [Example 9], for which the mortality at 500 ppm in data set [1] and in data set [2] was 71 to 100% each time.

For the compound `Cc1cc(NC(=O)NC(=O)c2c(F)cccc2F)c(C)c(Cl)c1Oc1ccccc1-c1ccccc1` [Example 33], in data set [1], the mortality at 2 ppm amounted to 100% and the mortality at 8 ppm stood at 100%.

On to `Cc1cc(NC(=O)NC(=O)c2c(F)cccc2F)c(C)c(Cl)c1Oc1ccc(-c2ccccc2)cc1Cl` [Example 14], for which the mortality at 500 ppm in data set [1] and in data set [2] was 71 to 100% in each case.

On to `O=C(NC(=O)c1ccc(F)cc1Cl)Nc1cc(Cl)c(Oc2ccc(-c3ccccc3)cc2)c(Cl)c1` [Comparative Example F, reference compound], for which the mortality at 6.5 ppm in data set [1] (read-out: Percent Control (after 5 days), Application Rate 6.5 ppm) turned out to be 0%. Further, in data set [1], the mortality at 25 ppm turned out to be 0% and the mortality at 100 ppm came to 0%.

On to `Cc1cc(Oc2ccccc2-c2ccccc2)c(Cl)cc1NC(=S)NC(=O)c1ccccc1Cl` [Example 23], for which the mortality at 500 ppm in data set [1] and in data set [2] was 71 to 100% each time.

Regarding `Cc1cc(NC(=O)NC(=O)c2c(F)cccc2Cl)c(C)c(Cl)c1Oc1ccc(Cl)cc1-c1ccccc1` [Example 19], the mortality at 500 ppm in data set [1] and in data set [2] was 71 to 100% each time.

As to `O=C(NC(=O)c1c(F)cccc1F)Nc1cc(Cl)c(OCc2ccccc2-c2ccccc2)c(Cl)c1` [Example 35], the mortality at 1 ppm in data set [1] (read-out: Percent Control (after 5 days), Application Rate 1 ppm) was determined as 100%. Also, the mortality at 4 ppm in data set [1] is 100%.

For `O=C(NC(=O)c1ccccc1Cl)Nc1cc(Cl)c(OCc2ccccc2-c2ccccc2)c(Cl)c1` [Example 2, 1-(2-chlorobenzoyl)-3-[3,5-dichloro-4-(2-phenylphenylmethoxy)phenyl]urea], the mortality at 500 ppm in data set [1] and in data set [2] was 71 to 100% in each case.

Take `Cc1cc(NC(=O)NC(=O)c2ccccc2Cl)c(C)c(Cl)c1Oc1ccc(-c2ccccc2)cc1` [Example 10]: the mortality at 500 ppm was 0 to 30% in data set [1] and 71 to 100% in data set [2].

Regarding `Cc1cc(NC(=O)NC(=O)c2c(F)cccc2Cl)c(C)c(Cl)c1Oc1ccc(-c2ccccc2)cc1Cl` [Example 16], the mortality at 500 ppm in data set [1] and in data set [2] was 71 to 100% throughout.

On to `O=C(NC(=O)c1ccccc1Cl)Nc1ccc(Oc2ccc(Oc3ccccc3)cc2)cc1` [E, reference compound], for which, in data set [1], the mortality at 25 ppm was determined as 0% and the mortality at 100 ppm was 0%.

As to `Cc1cc(NC(=O)NC(=O)c2ccccc2F)c(C)c(Cl)c1Oc1ccc(Cl)cc1-c1ccccc1` [Example 18], the mortality at 500 ppm in data set [1] and in data set [2] was 71 to 100% throughout.

Regarding `Cc1cc(NC(=O)NC(=O)c2c(F)cccc2F)c(C)c(Cl)c1Oc1ccccc1-c1ccccc1` [Example 6], the mortality at 500 ppm in data set [1] and in data set [2] was 71 to 100% each time.

Turning to `Cc1cc(NC(=O)NC(=O)c2c(Cl)cccc2Cl)c(C)c(Cl)c1Oc1ccccc1-c1ccccc1` [Example 4], the mortality at 500 ppm in data set [1] and in data set [2] was 71 to 100% in each case.

On to `Cc1cc(NC(=O)NC(=O)c2c(F)cccc2Cl)c(C)c(Cl)c1Oc1ccccc1-c1ccccc1` [Example 5], for which the mortality at 500 ppm in data set [1] and in data set [2] was 71 to 100% in each case.

On to `Cc1cc(NC(=O)NC(=O)c2ccccc2Cl)c(C)c(Cl)c1Oc1ccccc1-c1ccccc1` [Example 3], for which the mortality at 500 ppm in data set [1] and in data set [2] was 71 to 100% in each case.

In the case of `Cc1cc(NC(=S)NC(=O)c2ccccc2Cl)c(C)c(Cl)c1Oc1ccccc1-c1ccccc1` [Example 7], the mortality at 500 ppm in data set [1] and in data set [2] was 71 to 100% each time.

For `O=C(NC(=O)c1c(F)cccc1F)Nc1ccc(Oc2ccc(Oc3ccccc3)cc2)cc1` [D, reference compound], in data set [1], the mortality at 25 ppm was 0% and the mortality at 100 ppm came out at 0%.

On to `Cc1cc(NC(=S)NC(=O)c2ccccc2Cl)c(C)c(Cl)c1Oc1ccc(-c2ccccc2)cc1` [Example 12], for which the mortality at 500 ppm in data set [1] was in the range of 0 to 30%; in data set [2], 71 to 100%.

Turning to `Cc1cc(NC(=S)NC(=O)c2ccccc2F)c(C)c(Cl)c1Oc1ccccc1-c1ccccc1` [Example 8], the “Activity at 500 ppm, MBB” value in data set [2] is on record as “A (71- 100% Kill)”.

For `O=C(NC(=O)c1ccccc1Cl)Nc1cc(Cl)c(Oc2ccccc2-c2ccccc2)c(Cl)c1` [Example 32], the mortality at 500 ppm in data set [1] and in data set [2] was 71 to 100% each time.

For the compound `Cc1cc(NC(=O)NC(=O)c2ccccc2Cl)c(C)c(Cl)c1Oc1ccc(-c2ccccc2)cc1Cl` [Example 1, 1-(2-chlorobenzoyl)-3-[2,5-dimethyl-3-chloro-4-(2-chloro-4-phenylphenoxy)phenyl]urea], the mortality at 500 ppm in data set [1] and in data set [2] was 71 to 100% in each case.

Take `Cc1cc(NC(=O)NC(=O)c2c(F)cccc2Cl)c(C)c(Cl)c1Oc1ccc(Br)cc1-c1ccccc1` [Example 26]: the mortality at 500 ppm in data set [1] and in data set [2] was 71 to 100% throughout.

With `O=C(NC(=O)c1c(F)cccc1F)Nc1cc(Cl)c(OCc2ccccc2-c2ccccc2)c(Cl)c1` [Example 28], the mortality at 500 ppm in data set [1] and in data set [2] was 71 to 100% in each case.

On to `Cc1ccc(Oc2ccc(NC(=O)NC(=O)c3ccccc3Cl)cc2Cl)c(C)c1` [Comparative Example B, reference compound], for which, in data set [1], the mortality at 8 ppm is 20% and the mortality at 125 ppm amounted to 100%. The mortality at 21 ppm in data set [1] (read-out: Percent Control (after 5 days), Application Rate 21 ppm) worked out at 30%.

Turning to `O=C(NC(=O)c1c(F)cccc1F)Nc1cc(Cl)c(Oc2cccc3ccccc23)c(Cl)c1` [Comparative Example C, reference compound], in data set [1], the mortality at 8 ppm came to 0% and the mortality at 125 ppm was found to be 100%. In addition, in data set [1] (read-out: Percent Control (after 5 days), Application Rate 31 ppm), the mortality at 31 ppm amounted to 40%.

As to `Cc1cc(NC(=S)NC(=O)c2ccccc2F)c(C)c(Cl)c1Oc1ccccc1-c1ccccc1` [Example 30], the “Activity at 500 ppm, MBB” value in data set [2] is “C (0- 30% Kill)”.

Regarding `Cc1cc(NC(=O)NC(=O)c2ccccc2Cl)c(C)c(Cl)c1Oc1ccc(S(=O)(=O)c2ccc(Cl)cc2)cc1` [Comparative Example H, reference compound], in data set [1], the mortality at 2 ppm came to 0%, the mortality at 4 ppm is 0% and the mortality at 8 ppm came to 10%.

With `Cc1cc(NC(=S)NC(=O)c2ccccc2F)c(C)c(Cl)c1Oc1ccccc1-c1ccccc1` [Example 34], in data set [1], the mortality at 2 ppm was 100% and the mortality at 8 ppm stood at 100%.

In the case of `O=C(NC(=O)c1cc(F)ccc1Cl)Nc1cc(Cl)c(Oc2cccc(-c3ccccc3)c2)c(Cl)c1` [Comparative Example G, reference compound], the mortality at 6.25 ppm in data set [1] (read-out: Percent Control (after 5 days), Application Rate 6.25 ppm) was 0%. In addition, in data set [1], the mortality at 25 ppm amounted to 0% and the mortality at 100 ppm was found to be 0%.
